Source: US11331364B2, “Use for JNK inhibitor molecules for treatment of various diseases” (Xigen Inflammation Ltd., priority 2014, dated 2022)
Square brackets hold non-standard residues; d marks the D form. Peptide text beside a SMILES is read from it.

Legend:
[1] = system: Endotoxin-Induced Uveitis (EIU) model in rats; assay: Action duration in endotoxin-induced uveitis (EIU), clinical scoring and PMN cells quantification; format: in vivo, rat
Experimental: […] (18) female Lewis rats (36 eyes) were randomly divided into 6 groups of 3 animals each. EIU was induced by a single footpad injection of 100 µl sterile pyrogen-free saline containing 200 µg of LPS (Lipopolysaccharides from Salmonella typhimurium, Sigma-Aldrich, France)(2 mg/ml).
Animals were treated 48 hours, 1 week, 2 weeks or 4 weeks before EIU induction by intravenous injection of the JNK inhibitor according to SEQ ID NO: 172 (“XG-104”) at a single dose of 1 mg/kg (dose volume 1 ml/kg) in the tail vein. Dexamethasone 2 mg/kg or vehicle (NaCl 0.9%) were injected intravenously immediately before EIU induction.
The effect of the JNK inhibitor according to SEQ ID NO: 172 (“XG-104”) on EIU was evaluated using clinical scoring and PMN cells quantification 24 hours after induction. Ocular examinations were performed by slit lamp at 24 hours i.e. at the clinical peak of the disease in this model. The intensity of clinical ocular inflammation was scored on a scale from 0 to 5 for each eye: • Grade 0: no inflammation, • Grade 1: presence of a minimal iris and conjunctival vasodilatation but without the observation of flare or cells in the anterior chamber (AC), • Grade 2: presence of moderate iris and conjunctival vessel dilation but without evident flare or cells in the AC, • Grade 3: presence of intense iris vessels dilation, flare and less than 10 cells per slit lamp, field in the AC, • Grade 4: presence of more severe clinical signs than grade 3, with more than 10 cells in the AC with or without the formation of a hypopyon, • Grade 5: presence of intense inflammatory reaction, fibrin formation in the AC and total seclusion of the pupil.
For histology, eighteen eyeballs (one per animal) were collected and fixed for 1 h at room temperature in phosphate buffered saline (PBS) containing 4% paraformaldehyde before being rinsed overnight in PBS. The next day, samples were embedded in optimal cutting temperature (OTC) compound (Tissue-Tek®, Sakura Finetek, Zoeterwoude, Netherland) and the optic nerve level using a cryostat (Leica CM 3050S, France) and mounted on super-frost slides for histology. After nuclei staining with DAPI (Sigma-Aldrich, France), sections were mounted in PBS/Glycerol (1/1) and observed by fluorescence photomicroscopy (FXA Microphot, Nikon, USA). Digitized micrographs were obtained usinga digital camera (Spot, BFI Optilas, France). PMN cells identified by the shape of their nuclei stained with DAPI, were quantified on histological sections. The analysis was performed with 2 different sections per eye at the optic nerve head level.
Twenty-four hours after LPS induction, clinical scores for the vehicle-treated rats were 4.6±0.2 (mean±SEM, n=8). Reduction was calculated as (grade in vehicle-treated eye—grade in test item treated eye)/(grade in vehicle-treated eye). A significant reduction (*p<0.05, **p<0.01) in the severity of the ocular inflammation was detected 24 hours after induction and intravenous treatment with the JNK inhibitor according to SEQ ID NO: 172 (“XG-104”) (1 mg/kg) administered 48 hours before EIU induction (mean score: 2.8±0.3), corresponding to a 40% (**) decrease of EIU scores compared with the score observed in vehicle group, 24 hours after induction and intravenous treatment with the JNK inhibitor according to SEQ ID NO: 172 (“XG-104”) (1 mg/kg) administered 1 week before EIU induction (mean score: 3.3±0.3), corresponding to a 27% (*) decrease of EIU scores compared with the score observed in vehicle group, and 24 hours after induction and intravenous treatment with the JNK inhibitor according to SEQ ID NO: 172 (“XG-104”) (1 mg/kg) administered 2 weeks before EIU induction (mean score: 3.0±0.2), corresponding to a 35% (**) decrease of EIU scores compared with the score observed in vehicle group. […]

[2] = system: Primary Rat Whole Blood Cells; assay: LPS-induced TNFα release in rat whole blood; format: cell-based; conditions: LPS 3 ng/ml; 1, 3, 10 μM
Experimental: Given are the results for the control, 1 μM of SEQ ID NO: 172, 3 μM of SEQ ID NO: 172, and 10 μM of SEQ ID NO: 172 at different levels of LPS (ng/ml).
Whole blood is collected from anesthetized rat or human healthy volunteers using a venipuncture connected to a pre-labeled vacuum tube containing sodium citrate. Tubes are gently mixed by inversion 7-8 times; and are then kept at RT until stimulation. JNK inhibitor of SEQ ID NO: 172 is prepared 6 times concentrated in PBS, and 30 μl/well of mix is added into 96-well plate. Whole blood is diluted by 1:2 in PBS and 120 μl of diluted blood is added in each well where either PBS alone or JNK inhibitor of SEQ ID NO: 172 has been previously added. Whole blood is incubated at 37° C.; 85 rpm (Stuart Orbital incubator SI500) for 60 min. Activators (LPS) are the prepared, 30 μl/well of LPS, 6 times concentrated. After 60 min incubation, LPS is added to the blood, blood is mixed by pipetting up and down, and then kept for 4 h under agitation (85 rpm), at 37° C. After the 4 h incubation, the plates are centrifuged at about 770 g, 4° C. for 15 min in a pre-cooled centrifuge. […] Cytokine (IL-6, IL-2, IFNγ and TNFα) were then measured using standard Elisa kits (e.g. from R&D Systems: DuoSet Elisas; or from BD Biosciences: BD Opteia Set Elisa). Results are expressed as pg/ml of supernatant of the measured cytokine.

[3] = 1 mg/kg i.v. 1 week before EIU induction
[4] = 1 mg/kg i.v. 2 weeks before EIU induction
[5] = 1 mg/kg i.v. 4 weeks before EIU induction
[6] = 1 mg/kg i.v. 48 hours before EIU induction

CC(C)C[C@H](NC(=O)[C@H](CC(N)=O)NC(=O)[C@H](CC(C)C)NC(=O)[C@@H](NC(=O)[C@@H](C)NC(=O)[C@@H]1CCCN1C(=O)[C@H](CCCNC(=N)N)NC(=O)[C@@H](CCCCN)NC(=O)[C@@H]1CCCN1C(=O)[C@H](CCCNC(=N)N)NC(=O)[C@@H](CCCNC(=N)N)NC(=O)[C@H](CCCNC(=N)N)NC(=O)[C@H](CCCNC(=N)N)NC(=O)[C@H](CCC(N)=O)NC(=O)[C@@H](CCCNC(=N)N)NC(=O)[C@H](CCCNC(=N)N)NC(=O)[C@H](CCCCN)NC(=O)[C@H](CCCCN)NC(=O)[C@H](N)CCCNC(=N)N)[C@@H](C)O)C(=O)N[C@H](Cc1ccccc1)C(N)=O [SEQ ID NO: 172, rKKRrQRRrRPkRPaTLNLf] (H-[dR]KKR[dR]QRR[dR]RP[dK]RP[dA]TLNL[dF]-NH2; N-terminus assumed)
clinical score (mean±SEM) [1, 3]: 3.3±0.3
decrease of EIU scores vs vehicle group [1, 3]: 27%
clinical score (mean±SEM) [1, 4]: 3.0±0.2
decrease of EIU scores vs vehicle group [1, 4]: 35%
number of PMN cells [1, 4]: significantly decreased
reduction of number of PMN cells vs vehicle [1, 4]: 88%
clinical score (mean±SEM) [1, 5]: 4.2±0.1
decrease of EIU scores vs vehicle group [1, 5]: 9%
number of PMN cells [1, 5]: significantly decreased
reduction of number of PMN cells vs vehicle [1, 5]: 69%
clinical score (mean±SEM) [1, 6]: 2.8±0.3
decrease of EIU scores vs vehicle group [1, 6]: 40%
LPS-induced TNFα release [2]: blocks LPS-induced TNFα release
